The text below walks through data of patent publication US20040047845A1, “Methods and compositions for diagnosis and treatment of cancer based on the transcription factor ets2” (MUSC Foundation For Research Development, priority 1998, published 2004).

Assay [1] concerns LNCaP human prostate cell line. Description: Soft agar growth assay, LNCaP. The following applies: de novo expression of ETS2 in weakly tumorigenic LNCaP. It counts as cell-based. Here is the method: (§1) Transfection of LNCaP was performed in 35-mm wells using 2 μg of DNA and Superfact Reagent (Qiagen, Calif.). Selection for stable LNCaP transfectants was in 450 μg/ml G418. DU145 and PC3 cells were transfected using LipofectAmine ([…]/35 mm well, Life Technologies Inc., Bethesda, Md.). Stable DU145 and PC3 transfectants were expanded in the presence of 300 μg/ml G418.
(§2) Soft agar growth assays were performed in six-well plates (35-mm wells). Cells (20,000) were plated in 0.4% agar (Sigma) in RPMI 1640 supplemented with 10% FBS. An underlayer of 0.8% agar was used to prevent attachment of cells. Triplicate assays initiated with 20,000 cells were fed weekly by agar overlay and scored after 3 weeks. The soft agar assays were performed twice, independently.

The test system of a further assay is DU145 cells. Kind of assay: Soft agar growth assay (anchorage independent growth), DU145. It counts as cell-based, human. The following applies: DN-ETS2 transfectants vs DU145 parental cell line, after three weeks. Here is the method: as §1, §2

Take “ETS2: wild type human ETS2 transcription factor, expressed de novo in LNCaP from ETS2 cDNA in sense orientation”: in assay [1], the “ability to grow in soft agar” value was “increases its ability to grow in soft agar”.

B1: DN-ETS2: dominant negative truncated human ETS2 protein, DNA binding domain (C-terminal amino acids 334-469), expressed from plasmid pDN-ETS2 (protein, UniProt P15036 334-469, looked up, fragment)
chain: YIQERSDPVEQGKPVIPAAVLAGFTGSGPIQLWQFLLELLSDKSCQSFISWTGDGWEFKLADPDEVARRWGKRKNKPKMNYEKLSRGLRYYYDKNIIHKTSGKRYVYRFVCDLQNLLGFTPEELHAILGVQPDTED
As for B1, in the assay on DU145 cells, the “anchorage-independent growth in soft agar” value is given as “do not grow well in soft agar”.
